Values of other authors in patent US20090317456A1, “USE OF ONCOLYTIC VIRUSES AND ANTIANGIOGENIC AGENTS IN THE TREATMENT OF CANCER” (priority 2006, published 2009).

Assays:
[1] = system: VEGFR tyrosine kinases, including VEGFR-3; conditions: all known VEGFR tyrosine kinases
[2] = system: PDGFR
[3] = system: metastatic colorectal cancer; conditions: bevacizumab added to FOLFOX or FOLFIRI; prolonged from 12 months without

Compound	inhibition of VEGFR tyrosine kinases [1]	inhibition of PDGFR [2]	median survival [3]
Clc1ccc(Nc2nnc(Cc3ccncc3)c3ccccc23)cc1 [PTK 787/ZK 222584]	lower nanomolar range	nanomolar range	
bevacizumab: humanized anti-VEGF monoclonal antibody (Avastin, Genentech)			20 months
